# Source: paper PMC6021032, “Antimycobacterial activity of nitrogen heterocycles derivatives: 7-(pyridine-4-yl)-indolizine derivatives. Part VII^8–12” (Journal of Enzyme Inhibition and Medicinal Chemistry, 2017)
# Assays:
# [1] = system: Mycobacterium tuberculosis H37Rv; assay: Primary screen (Cycle 1): MIC, IC50, IC90 under aerobic conditions; type: cell-based
# [2] = human
# Caco-2-cell monolayer = assay: Caco-2 permeability assay
# Protocol: The Caco-2 cell layer permeability assay is widely used as a more predictive in vitro model of absorption through the intestinal epithelium. […] For B–A permeability, test compound was added to the basal side of the Caco-2 monolayer and the transport of the compound to the apical side monitored. The amount of compound present in each compartment was quantified by LC-MS/MS.
# recovered and analyzed by LC-MS/MS.
# 3.2. Caco-2 Permeability Assay
# feeding at 2-day intervals.
# Each experiment included the
# contained transport buffer at pH 7.4.
# 3.3. Cytochrome P450 Inhibition Assay
# and was < 0.2%. Samples were run in duplicate. Compounds were incubated with human liver
# [3] = Plasma protein binding by equilibrium dialysis; details: Human plasma protein binding assay
# Mtb = system: Mtb; set-up: method as in PMID 24268596; details: reported anti-TB activity of compound 1; cited from earlier work
# Mycobacterium avium = assay: MIC against nontuberculous mycobacteria (Alamar blue); type: cell-based; details: M. avium
# Mycobacterium abscessus = assay: MIC, IC50, IC90 against nontuberculous mycobacteria (OD590); type: cell-based; details: Mycobacteroides abscessus, M. abscessus; for MIC: read-out: MIC
# [4] = Cytotoxicity, THP-1 cell viability (CellTiter-Glo); details: human
# [5] = system: THP-1 cell line infected with Mtb; assay: Intracellular activity assay, luminescence; type: cell-based, Mycobacterium tuberculosis; details: Mycobacterium tuberculosis, Mtb-infected THP-1 cells, 72 h; for IC50: read-out: IC50 intracell; for IC90: read-out: IC90 intracell
# Protocol: Since the overall efficacy of any anti TB drug will be improved by its ability to traffic into the macrophage phagosome containing replicating bacteria, we evaluated the intracellular activity of compounds[24]. This was measured by using THP-1 cell line infected with Mtb. Infected cells were exposed to compounds for 72 h and viable bacterial counts were measured using luminescence as a measure of intracellular growth.
# Assay (Promega) which uses ATP as an indicator of cell viability. Relative luminescent units (RLU) were measured using a Biotek Synergy 4 plate reader. The dose response curve was fitted using the Levenberg–Marquardt algorithm. The IC50 was defined as the compound […]
# Intracellular Activity Assay
# The activity of compounds against intracellular bacteria was determined by measuring viability in infected THP-1 cell after 3 days in the presence of test compounds. Compounds were prepared as 10-point three-fold serial dilutions in DMSO. The highest concentration of […]
# THP-1 cells were cultured in complete RPMI and differentiated into macrophage-like cells using 80 nM PMA overnight at 37°C, 5% CO2. THP-1 cells were infected with a luminescent strain of H37Rv (which constitutively expresses luxABCDE) at a multiplicity of infection of 1 and incubated overnight at 37°C, 5% CO2. Infected cells were recovered using Accutase/EDTA solution, washed twice with PBS to remove extracellular bacteria and seeded into assay pates. Compound dilutions were added to a final DMSO concentration of 0.5%.
# Assay plates were incubated for 72 h at 37°C, 5% CO2. Each run included isoniazid as a control. Relative luminescent units (RLU) were measured using a Biotek Synergy 2 plate reader. The dose response curve was fitted using the Levenberg–Marquardt algorithm. The […]
# inhibition of growth respectively.
# 3. Cycle 3 – Absorption, distribution, metabolism, excretion and toxicity (ADMET)
# 3.1. Plasma Protein Binding Assay
# Compounds were added to human plasma at a fixed concentration of 5 µM. The mixture was dialyzed in a RED device (Rapid Equilibrium Dialysis, Pierce) against PBS and incubated on an orbital shaker for 4 h at 37 °C. Aliquots from plasma and PBS sides were collected; an equal volume of PBS was added to the plasma sample, and an equal volume of plasma was added to the PBS sample. Three volumes of methanol (containing the internal binding standard propranolol) was added to precipitate the proteins and release the compound.
# Each compound was tested in duplicate. Samples were centrifuged, the supernatant was […]
# Mtb H37Rv = assay: LORA parallel plates, oxygen-deprived bacteria incubated under aerobic conditions (normal oxygen); type: cell-based, Mycobacterium tuberculosis; details: Mycobacterium tuberculosis, H37RV; for MIC: 120 h, oxygen-deprived bacteria, aerobic 5 d
# M. tuberculosis H37Rv = assay: Cycle 2 repeat of MIC, IC50, IC90 under aerobic conditions (lower starting concentrations); type: cell-based, Mycobacterium tuberculosis; details: Mycobacterium tuberculosis, revaluation; for IC50 / IC90: aerobic; for MIC: repeated at lower starting concentrations, read-out: MIC aerobic condition
# in vitro = details: human
# [6] = In vitro microsomal stability assay; details: human, 1 μM, 37 °C
# Source text: The stability of compound is expressed as a function of time[41]^,[42]
# 3.4. In vitro Microsomal Stability Assay
# compound to detect NADPH-free degradation. Verapamil and dextromethorphan were
# included as control compounds.
# [7] = system: human liver cells (HepG2); assay: HepG2 cytotoxicity (CellTiter-Glo); type: cell-based; details: read-out: IC50 (50% loss of viability), 72 h
# [8] = M. tuberculosis H37Rv, aerobic conditions, primary screen
# [9] = MIC value taken from the first MIC assay
# [10] = Mycobacterium tuberculosis, M. tuberculosis H37Rv, aerobic conditions, primary screen
compound,measurement,setting,value
4-[3-(4-Bromophenyl)-1-(ethoxycarbonyl)indolizine-7-yl)-1-(2-(4-methoxyphenyl)-2-oxoethyl)pyridine-1-ium bromide [Compound 6g],IC50,[1]; [8],35 µM
same,IC90,[1]; [8],46 µM
same,MIC,[1]; [8],50 µM
CC(C)NC[C@H](O)COc1cccc2ccccc12 (racemic) [Propanolol],Mean plasma fraction bound,[2],79.3%
same,Mean plasma fraction unbound,[2],20.7%
same,Mean A→B Papp,"Caco-2-cell monolayer; Caco-2, apical to basolateral",12.7 10^−6cm/s
same,Mean B→A Papp,"Caco-2-cell monolayer; Caco-2, basolateral to apical",25 10^−6cm/s
same,efflux ratio,Caco-2-cell monolayer; Re = Papp (B→A)/Papp (A→B),2
same,Recovery,[3],93
CCOC(=O)c1cc(C(=O)c2ccccc2)n2ccc(-c3cc[n+](CC(=O)c4ccc(OC)cc4)cc3)cc12 [Compound 1],IC90,Mtb,13.1 µM
same,MIC,Mtb,3.91 µM
"CCOC(=O)c1cc(C(=O)c2ccccc2)n2ccc(-c3cc[n+](CC(=O)c4ccc(C)cc4)cc3)cc12.[Br-] [Compound 6a, 4-(3-Benzoyl-1-(ethoxycarbonyl)indolizine-7-yl)-1-(2-oxo-2-(p-tolyl)ethyl)pyridin-1-ium bromide]",MIC,Mycobacterium avium,50 µM
same,MIC,Mycobacterium avium; Mycobacterium avium,50 µM
same,MIC,[1]; [9],14 µM
same,IC50,[1]; [10],13 µM
same,IC90,[1]; [10],15 µM
same,MIC,[1]; [10],14 µM
same,IC50,Mycobacterium abscessus,24 µM
same,IC90,Mycobacterium abscessus,37 µM
same,MIC,Mycobacterium abscessus,> 200 µM
same,IC50 at 3 days,[4],2.9 µM
same,IC50,[5],5.2 µM
same,IC90,[5],15 µM
same,IC50,Mtb H37Rv,9.2 µM
same,IC90,Mtb H37Rv,42 µM
same,MIC,Mtb H37Rv,100 µM
same,IC50,M. tuberculosis H37Rv,12 µM
same,IC90,M. tuberculosis H37Rv,23 µM
same,MIC,M. tuberculosis H37Rv,22 µM
"CCOC(=O)c1cc(C(=O)c2ccccc2)n2ccc(-c3cc[n+](CC(=O)c4cccc(OC)c4)cc3)cc12 [Compound 6b, 4-(3-Benzoyl-1-(ethoxycarbonyl)indolizine-7-yl)-1-(2-(3-methoxyphenyl)-2-oxoethyl)pyridin-1-ium]",melting point,,255 to 256 °C
same,IC50,[1]; [10],39 µM
same,IC90,[1]; [10],> 50 µM
same,MIC,[1]; [10],> 50 µM
"CCOC(=O)c1cc(C(=O)c2ccc(Cl)cc2)n2ccc(-c3cc[n+](CC(=O)c4cccc(OC)c4)cc3)cc12 [Compound 6d, 4-(3-(4-Chlorobenzoyl)-1-(ethoxycarbonyl)indolizine-7-yl)-1-(2-(3-methoxyphenyl)-2-oxoethyl)pyridin-1-ium]",melting point,,252 to 254 °C
same,MIC,Mycobacterium avium; Mycobacterium avium,200 µM
same,MIC,[1]; [9],15 µM
same,IC50,[1]; [10],14 µM
same,IC90,[1]; [10],16 µM
same,MIC,[1]; [10],15 µM
same,IC50,Mycobacterium abscessus,81 µM
same,IC90,Mycobacterium abscessus,150 µM
same,MIC,Mycobacterium abscessus,> 200 µM
same,IC50,[5],11 µM
same,IC90,[5],> 50 µM
same,IC50,Mtb H37Rv,17 µM
same,IC90,Mtb H37Rv,27 µM
same,MIC,Mtb H37Rv,43 µM
same,IC50 at 3 days,in vitro,3.9 µM
same,IC50,M. tuberculosis H37Rv,12 µM
same,IC90,M. tuberculosis H37Rv,17 µM
same,MIC,M. tuberculosis H37Rv,14 µM
"CCOC(=O)c1cc(C(=O)c2ccc(Cl)cc2)n2ccc(-c3cc[n+](CC(=O)c4ccc(F)cc4)cc3)cc12 [Compound 6e, 4-(3-(4-Chlorobenzoyl)-1-(ethoxycarbonyl)indolizine-7-yl)-1-(2-(4-fluorophenyl)-2-oxoethyl)pyridin-1-ium bromide]",IC50,[1]; [10],> 100 µM
same,IC90,[1]; [10],> 100 µM
same,MIC,[1]; [10],> 100 µM
"CCOC(=O)c1cc(C(=O)c2ccc(Br)cc2)n2ccc(-c3cc[n+](CC(=O)c4ccc(C)cc4)cc3)cc12.[Br-] [Compound 6f, 4-(3-(4-Bromobenzoyl)-1-(ethoxycarbonyl)indolizine-7-yl)-1-(2-oxo-2-(p-tolyl)ethyl)pyridin-1-ium bromide]",melting point,,283 to 284 °C
same,IC50,[1]; [10],13 µM
same,IC90,[1]; [10],19 µM
same,MIC,[1]; [10],20 µM
"CCOC(=O)c1cc(C(=O)c2ccc(Br)cc2)n2ccc(-c3cc[n+](CC(=O)c4cccc(OC)c4)cc3)cc12 [Compound 6h, 4-(3-(4-Bromobenzoyl)-1-(ethoxycarbonyl)indolizine-7-yl)-1-(2-(3-methoxyphenyl)-2-oxoethyl)pyridin-1-ium]",melting point,,256 to 259 °C
same,MIC,Mycobacterium avium; Mycobacterium avium,200 µM
same,MIC,[1]; [9],14 µM
same,IC50,[1]; [10],13 µM
same,IC90,[1]; [10],14 µM
same,MIC,[1]; [10],14 µM
same,IC50,Mycobacterium abscessus,> 200 µM
same,IC90,Mycobacterium abscessus,> 200 µM
same,MIC,Mycobacterium abscessus,> 200 µM
same,IC50,[5],13 µM
same,IC90,[5],43 µM
same,IC50,Mtb H37Rv,16 µM
same,IC90,Mtb H37Rv,24 µM
same,MIC,Mtb H37Rv,38 µM
same,IC50 at 3 days,in vitro,3.8 µM
same,IC50,M. tuberculosis H37Rv,15 µM
same,IC90,M. tuberculosis H37Rv,26 µM
same,MIC,M. tuberculosis H37Rv,27 µM
CCOC(=O)c1cc(C(=O)c2ccc(Br)cc2)n2ccc(-c3cc[n+](CC(=O)c4ccc(Cl)cc4)cc3)cc12 [Compound 6j],IC50,[1]; [10],> 200 µM
same,IC90,[1]; [10],> 200 µM
same,MIC,[1]; [10],> 200 µM
CCOC(=O)c1cc(C(=O)c2ccc(C)cc2)n2ccc(-c3cc[n+](CC(=O)c4ccc([N+](=O)[O-])cc4)cc3)cc12 [Compound 6k],IC50,[1]; [10],200 µM
same,IC90,[1]; [10],> 200 µM
same,MIC,[1]; [10],> 200 µM
CCOC(=O)c1cc(C(=O)c2ccc(OC)cc2)n2ccc(-c3cc[n+](CC(=O)c4ccc(Br)cc4)cc3)cc12 [Compound 6l],IC50,[1]; [10],> 200 µM
same,IC90,[1]; [10],> 200 µM
same,MIC,[1]; [10],> 200 µM
"COc1ccc2c(c1)[C@]13CCCC[C@@H]1[C@H](C2)N(C)CC3 [Dextromethorphan, reference compound]",microsomal CLint at 1 μM,"[6]; s9, NADPH-dependent CLint",24.3 µL/min/mg
same,half-life at 1 μM,"[6]; s9, NADPH-dependent T1/2, Human",1.58 h
same,microsomal CLint at 1 μM,"[6]; s9, NADPH-free CLint",< 12.8 µL/min/mg
same,half-life at 1 μM,"[6]; s9, NADPH-free T1/2, Human",> 3 h
"NNC(=O)c1ccncc1 [Isoniazid, reference compound]",IC50,[5],0.18 µM
same,IC90,[5],0.27 µM
"Cc1ncc([N+](=O)[O-])n1CCO [Metronidazole, reference compound]",IC50,Mtb H37Rv,> 200 µM
same,IC90,Mtb H37Rv,> 200 µM
same,MIC,Mtb H37Rv,> 200 µM
"CO[C@H]1/C=C/O[C@@]2(C)Oc3c(C)c(O)c4c(O)c(c(/C=N/N5CCN(C)CC5)c(O)c4c3C2=O)NC(=O)/C(C)=C\C=C\[C@H](C)[C@H](O)[C@@H](C)[C@@H](O)[C@@H](C)[C@H](OC(C)=O)[C@@H]1C [Rifampicin, reference compound]",MIC,Mycobacterium avium; Mycobacterium avium,0.098 µM
same,IC50,[1]; [10],0.0036 µM
same,IC90,[1]; [10],0.0071 µM
same,MIC,[1]; [10],0.0065 µM
same,IC50,Mycobacterium abscessus,2.3 µM
same,IC90,Mycobacterium abscessus,3.6 µM
same,MIC,Mycobacterium abscessus,3.6 µM
same,IC50,Mtb H37Rv,0.0057 µM
same,IC90,Mtb H37Rv,0.011 µM
same,MIC,Mtb H37Rv,0.021 µM
same,IC50,M. tuberculosis H37Rv,0.0043 µM
same,IC90,M. tuberculosis H37Rv,0.0092 µM
same,MIC,M. tuberculosis H37Rv,0.0071 µM
"CN[C@@H]1C[C@H]2O[C@@](C)([C@@H]1OC)n1c3ccccc3c3c4c(c5c6ccccc6n2c5c31)C(=O)NC4 [Staurosporine, reference compound]",IC50,[7],0.0086 µM
